Experimental data published in ChEMBL document CHEMBL5291721, “A preclinical secondary pharmacology resource illuminates target-adverse drug reaction associations of marketed drugs” (Nat Commun, 2023).

How the values were obtained:
Androgen receptor = biological target: T1, Androgen receptor (Homo sapiens, UniProt P10275)
T1 sequence (P10275 whole entry): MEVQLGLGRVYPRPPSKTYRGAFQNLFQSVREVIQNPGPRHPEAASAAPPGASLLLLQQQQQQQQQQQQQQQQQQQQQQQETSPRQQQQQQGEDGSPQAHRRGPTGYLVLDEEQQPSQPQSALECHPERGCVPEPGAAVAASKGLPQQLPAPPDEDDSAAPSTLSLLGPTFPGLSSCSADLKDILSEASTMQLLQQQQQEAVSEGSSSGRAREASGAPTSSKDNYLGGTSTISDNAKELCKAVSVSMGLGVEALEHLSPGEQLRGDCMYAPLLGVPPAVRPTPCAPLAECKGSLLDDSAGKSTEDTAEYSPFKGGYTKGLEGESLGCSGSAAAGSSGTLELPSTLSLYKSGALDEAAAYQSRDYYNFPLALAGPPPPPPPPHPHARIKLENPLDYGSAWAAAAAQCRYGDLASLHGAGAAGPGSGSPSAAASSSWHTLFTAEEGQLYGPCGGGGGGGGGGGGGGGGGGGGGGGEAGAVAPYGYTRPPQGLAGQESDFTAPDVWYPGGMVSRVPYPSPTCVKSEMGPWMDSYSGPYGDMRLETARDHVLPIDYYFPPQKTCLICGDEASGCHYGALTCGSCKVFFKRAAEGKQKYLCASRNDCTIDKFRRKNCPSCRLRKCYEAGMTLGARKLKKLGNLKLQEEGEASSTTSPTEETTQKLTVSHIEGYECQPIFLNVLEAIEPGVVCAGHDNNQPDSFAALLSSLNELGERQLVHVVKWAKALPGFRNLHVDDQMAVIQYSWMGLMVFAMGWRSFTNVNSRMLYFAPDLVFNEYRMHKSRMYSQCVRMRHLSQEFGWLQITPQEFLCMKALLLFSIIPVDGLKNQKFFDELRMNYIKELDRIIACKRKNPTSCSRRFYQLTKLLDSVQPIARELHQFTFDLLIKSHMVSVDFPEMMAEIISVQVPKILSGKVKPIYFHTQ

[1] = biological target: T2, Type-1 angiotensin II receptor (Homo sapiens, UniProt P30556)
T2 sequence (P30556 whole entry): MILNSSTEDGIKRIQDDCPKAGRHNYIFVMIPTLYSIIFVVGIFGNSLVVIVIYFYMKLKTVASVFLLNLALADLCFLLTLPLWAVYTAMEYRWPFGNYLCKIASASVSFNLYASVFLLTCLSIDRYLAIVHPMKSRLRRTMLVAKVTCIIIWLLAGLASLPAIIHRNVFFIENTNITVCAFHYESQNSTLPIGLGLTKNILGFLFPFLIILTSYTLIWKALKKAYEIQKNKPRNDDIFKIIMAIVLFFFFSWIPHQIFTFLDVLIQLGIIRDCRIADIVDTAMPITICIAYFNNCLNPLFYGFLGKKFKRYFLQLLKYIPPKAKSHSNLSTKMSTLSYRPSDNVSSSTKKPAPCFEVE

Vasopressin V2 receptor = Vasopressin V2 receptor (Homo sapiens, UniProt P30518)
Chain of Vasopressin V2 receptor (P30518 whole entry): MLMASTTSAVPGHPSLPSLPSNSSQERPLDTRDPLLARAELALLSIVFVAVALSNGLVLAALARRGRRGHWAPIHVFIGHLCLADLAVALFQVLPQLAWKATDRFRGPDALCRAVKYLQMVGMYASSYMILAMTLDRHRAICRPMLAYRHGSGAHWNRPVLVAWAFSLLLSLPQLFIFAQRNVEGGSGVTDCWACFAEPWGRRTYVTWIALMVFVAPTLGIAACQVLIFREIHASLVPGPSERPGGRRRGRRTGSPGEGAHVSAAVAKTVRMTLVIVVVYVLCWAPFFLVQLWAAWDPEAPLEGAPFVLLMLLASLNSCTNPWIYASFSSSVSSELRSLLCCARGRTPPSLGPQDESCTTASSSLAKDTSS

[2] = biological target: T3, Prostaglandin G/H synthase 1 (Rattus norvegicus, UniProt Q63921); assay type: functional
T3 sequence (Q63921 whole entry): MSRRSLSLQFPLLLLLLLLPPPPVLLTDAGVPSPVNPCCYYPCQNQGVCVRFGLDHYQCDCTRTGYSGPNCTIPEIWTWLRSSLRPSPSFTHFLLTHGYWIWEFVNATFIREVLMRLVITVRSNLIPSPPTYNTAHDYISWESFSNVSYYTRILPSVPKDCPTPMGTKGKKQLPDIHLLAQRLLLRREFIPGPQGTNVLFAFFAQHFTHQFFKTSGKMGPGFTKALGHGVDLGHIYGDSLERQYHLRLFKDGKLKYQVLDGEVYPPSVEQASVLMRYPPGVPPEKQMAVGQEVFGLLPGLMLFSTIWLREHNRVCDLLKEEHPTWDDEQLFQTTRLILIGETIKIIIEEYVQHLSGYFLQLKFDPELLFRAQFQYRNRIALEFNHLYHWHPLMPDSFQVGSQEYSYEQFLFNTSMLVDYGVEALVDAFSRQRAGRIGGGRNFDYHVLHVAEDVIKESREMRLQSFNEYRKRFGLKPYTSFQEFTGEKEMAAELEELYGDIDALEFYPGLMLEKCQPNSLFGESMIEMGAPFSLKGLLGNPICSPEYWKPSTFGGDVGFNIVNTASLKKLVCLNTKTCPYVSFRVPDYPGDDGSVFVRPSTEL

[3] = biological target: 3',5'-cyclic-AMP phosphodiesterase 4D (Homo sapiens, UniProt Q08499); assay type: functional
Chain of 3',5'-cyclic-AMP phosphodiesterase 4D (Q08499 whole entry): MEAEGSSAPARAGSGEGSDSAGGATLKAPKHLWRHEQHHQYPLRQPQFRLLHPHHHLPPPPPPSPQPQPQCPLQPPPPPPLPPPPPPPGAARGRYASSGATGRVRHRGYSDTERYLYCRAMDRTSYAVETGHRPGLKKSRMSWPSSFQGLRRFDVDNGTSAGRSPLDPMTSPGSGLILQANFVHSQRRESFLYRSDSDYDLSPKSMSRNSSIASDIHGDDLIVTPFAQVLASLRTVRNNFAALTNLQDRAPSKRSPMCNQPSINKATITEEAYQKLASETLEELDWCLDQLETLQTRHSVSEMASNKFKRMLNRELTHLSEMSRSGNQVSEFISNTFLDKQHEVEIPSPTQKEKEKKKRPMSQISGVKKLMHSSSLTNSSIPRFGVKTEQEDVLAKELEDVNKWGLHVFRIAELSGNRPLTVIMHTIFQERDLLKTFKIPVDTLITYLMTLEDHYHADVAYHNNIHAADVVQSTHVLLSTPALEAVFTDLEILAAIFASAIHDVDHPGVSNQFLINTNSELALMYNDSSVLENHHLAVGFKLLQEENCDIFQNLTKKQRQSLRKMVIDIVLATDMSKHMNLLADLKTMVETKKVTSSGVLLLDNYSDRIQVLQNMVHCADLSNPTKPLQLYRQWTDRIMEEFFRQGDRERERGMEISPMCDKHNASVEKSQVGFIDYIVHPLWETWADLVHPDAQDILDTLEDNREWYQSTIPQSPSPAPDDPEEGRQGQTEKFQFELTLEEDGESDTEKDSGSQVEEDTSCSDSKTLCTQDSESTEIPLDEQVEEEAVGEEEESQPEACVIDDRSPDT

B2 bradykinin receptor = biological target: T4, B2 bradykinin receptor (Homo sapiens, UniProt P30411)
T4 sequence (P30411 whole entry): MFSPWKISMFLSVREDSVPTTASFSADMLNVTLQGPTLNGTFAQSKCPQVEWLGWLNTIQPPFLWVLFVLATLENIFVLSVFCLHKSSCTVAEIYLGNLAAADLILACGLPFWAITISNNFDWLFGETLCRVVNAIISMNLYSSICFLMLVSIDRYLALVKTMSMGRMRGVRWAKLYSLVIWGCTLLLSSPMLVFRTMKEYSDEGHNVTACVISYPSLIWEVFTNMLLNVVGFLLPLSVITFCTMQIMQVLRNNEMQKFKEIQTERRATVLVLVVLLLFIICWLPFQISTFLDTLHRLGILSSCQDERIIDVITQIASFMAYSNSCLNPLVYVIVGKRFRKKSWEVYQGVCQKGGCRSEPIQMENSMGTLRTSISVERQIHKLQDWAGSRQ

[4] = biological target: T5, 5-hydroxytryptamine receptor 1A (Homo sapiens, UniProt P08908); assay type: functional, cell-based
T5 sequence (P08908 whole entry): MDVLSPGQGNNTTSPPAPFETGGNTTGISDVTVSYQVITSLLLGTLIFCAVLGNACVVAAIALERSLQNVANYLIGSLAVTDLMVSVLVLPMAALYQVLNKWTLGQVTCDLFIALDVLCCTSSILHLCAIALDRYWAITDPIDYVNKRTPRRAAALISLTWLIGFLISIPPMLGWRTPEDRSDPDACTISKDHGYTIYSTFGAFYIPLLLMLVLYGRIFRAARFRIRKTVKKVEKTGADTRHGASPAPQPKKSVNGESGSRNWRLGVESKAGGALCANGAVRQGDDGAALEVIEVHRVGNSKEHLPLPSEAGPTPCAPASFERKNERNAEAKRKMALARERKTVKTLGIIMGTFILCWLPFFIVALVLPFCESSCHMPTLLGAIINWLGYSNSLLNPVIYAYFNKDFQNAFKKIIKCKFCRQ

Histamine H2 receptor = Histamine H2 receptor (Homo sapiens, UniProt P25021); assay type: functional, cell-based
Chain of Histamine H2 receptor (P25021 whole entry): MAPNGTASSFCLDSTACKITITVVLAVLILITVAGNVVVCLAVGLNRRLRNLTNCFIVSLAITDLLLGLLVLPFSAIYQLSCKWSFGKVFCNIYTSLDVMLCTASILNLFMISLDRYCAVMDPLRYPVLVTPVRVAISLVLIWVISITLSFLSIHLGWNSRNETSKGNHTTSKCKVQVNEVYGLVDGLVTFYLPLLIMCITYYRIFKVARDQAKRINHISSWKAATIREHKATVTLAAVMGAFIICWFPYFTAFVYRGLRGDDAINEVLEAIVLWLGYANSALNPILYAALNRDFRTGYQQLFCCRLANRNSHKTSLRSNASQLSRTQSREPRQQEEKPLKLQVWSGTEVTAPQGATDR
Also: assay procedure not described here.

Row | SMILES | AC50 (Androgen receptor) [µM] | also measured
1 | CCCCCCCC(=O)N[C@H](CN1CCCC1)[C@H](O)c1ccc2c(c1)OCCO2 | > 30 | 
2 | C[C@]1(COc2ccc(N3CCC(Oc4ccc(OC(F)(F)F)cc4)CC3)cc2)Cn2cc([N+](=O)[O-])nc2O1 | > 30 | AC50 [1]: > 30 µM; AC50 (Vasopressin V2 receptor): > 30 µM; AC50 [2]: > 30 µM; AC50 [3]: > 30 µM; AC50 (B2 bradykinin receptor): > 30 µM
3 | CC(=O)OC(C)OC(=O)C(C)c1ccc(-c2ccccc2)c(F)c1 (stereo unspecified) | > 30 | 
4 | C[C@H](N)C(=O)O [ALANINE] | > 30 | 
5 | O=C(Nc1nc(-c2cc(Cl)cs2)c(N2CCN(C3CCCCC3)CC2)s1)c1cnc(N2CCC(C(=O)O)CC2)c(Cl)c1 [AVATROMBOPAG] | > 30 | AC50 [1]: > 10 µM; AC50 [3]: > 10 µM
6 | COC(=O)C1=C(C)NC(C)=C(C(=O)O[C@H]2CCN(Cc3ccccc3)C2)[C@H]1c1cccc([N+](=O)[O-])c1 [BARNIDIPINE] | > 30 | 
7 | Cc1nnc(SCC2=C(C(=O)O)N3C(=O)[C@@H](NC(=O)Cn4cc(Cl)c(=O)c(Cl)c4)[C@H]3SC2)s1 [CEFAZEDONE] | > 30 | 
8 | CCC[C@@H]1C[C@@H](C(=O)N[C@@H]([C@H]2O[C@H](SC)[C@H](OP(=O)(O)O)[C@@H](O)[C@H]2O)[C@H](C)Cl)N(C)C1 [CLINDAMYCIN PHOSPHATE] | > 30 | 
9 | Oc1c(I)cc(Cl)c2cccnc12 [CLIOQUINOL] | > 30 | AC50 [4]: > 30 µM; AC50 (Histamine H2 receptor): > 30 µM
10 | Nc1ccncc1 [DALFAMPRIDINE] | > 30 | 
11 | Cc1onc(-c2c(Cl)cccc2Cl)c1C(=O)N[C@@H]1C(=O)N2[C@@H]1SC(C)(C)[C@@H]2C(=O)O [DICLOXACILLIN] | > 30 | 
12 | C[C@H]1O[C@@H](O[C@H]2[C@@H](O)C[C@H](O[C@H]3[C@@H](O)C[C@H](O[C@H]4CC[C@@]5(C)[C@H](CC[C@@H]6[C@@H]5CC[C@]5(C)[C@@H](C7=CC(=O)OC7)CC[C@]65O)C4)O[C@@H]3C)O[C@@H]2C)C[C@H](O)[C@@H]1O [DIGITOXIN] | > 30 | 
13 | OC(CCCN1CCCCC1)(c1ccccc1)c1ccccc1 [DIPHENIDOL] | > 30 | 
14 | C[C@@H](O)[C@H]1C(=O)N2C(C(=O)O)=C([C@H]3CCCO3)S[C@H]12 [FAROPENEM] | > 30 | 
15 | COCCOc1cnc(NS(=O)(=O)c2ccccc2)nc1 [GLYMIDINE] | > 30 | 
16 | CCC(=O)O[C@]1(C(=O)COC(C)=O)CC[C@H]2[C@@H]3CCC4=CC(=O)CC[C@]4(C)[C@H]3[C@@H](O)C[C@@]21C [HYDROCORTISONE ACEPONATE] | 0.314 | 

Row | SMILES | AC50 (Androgen receptor) [µM] | also measured
17 | NC(=O)NCCC[C@H](N)C(=O)O [L-CITRULLINE] | > 30 | 
18 | CC(=O)O[C@H]1C[C@H](O[C@H]2[C@@H](O)C[C@H](O[C@H]3[C@@H](O)C[C@H](O[C@H]4CC[C@@]5(C)[C@H](CC[C@@H]6[C@@H]5C[C@@H](O)[C@]5(C)[C@@H](C7=CC(=O)OC7)CC[C@]65O)C4)O[C@@H]3C)O[C@@H]2C)O[C@H](C)[C@H]1O[C@@H]1O[C@H](CO)[C@@H](O)[C@H](O)[C@H]1O [LANATOSIDE C] | > 30 | 
19 | Nc1nc(N)nc(Nc2ccc([As]3SCC(CO)S3)cc2)n1 (stereo unspecified) [MELARSOPROL] | > 30 | 
20 | Cc1cc(CCN2CCN(c3cccc(Cl)c3)CC2)n[nH]1 [MEPIPRAZOLE] | > 30 | 
21 | CC[N+](C)(CC)CCOC(=O)C1c2ccccc2Oc2ccccc21 [METHANTHELINE] | > 30 | 
22 | CO[C@H]1[C@@H](O)C[C@H](O[C@H]2[C@@H](O)C[C@H](O[C@H]3[C@@H](O)C[C@H](O[C@H]4CC[C@@]5(C)[C@H](CC[C@@H]6[C@@H]5C[C@@H](O)[C@]5(C)[C@@H](C7=CC(=O)OC7)CC[C@]65O)C4)O[C@@H]3C)O[C@@H]2C)O[C@@H]1C [METILDIGOXIN] | > 30 | 
23 | CC1(C)S[C@@H]2[C@H](NC(=O)[C@H](NC(=O)N3CCN(S(C)(=O)=O)C3=O)c3ccccc3)C(=O)N2[C@H]1C(=O)O [MEZLOCILLIN] | > 30 | 
24 | CCC(=O)O[C@@H]1CC(=O)O[C@H](C)C/C=C/C=C/[C@H](OC(C)=O)[C@H](C)C[C@H](CC=O)[C@H](O[C@@H]2O[C@H](C)[C@@H](O[C@H]3C[C@@](C)(OC(C)=O)[C@@H](OC(=O)CC)[C@H](C)O3)[C@H](N(C)C)[C@H]2O)[C@H]1OC [MIOCAMYCIN] | > 30 | 
25 | CC(c1ccc(Cl)c(Cl)c1)N1N=C(N)CC1=O (stereo unspecified) [MUZOLIMINE] | > 30 | 
26 | c1ccc2c(CC3=NCCN3)cccc2c1 [NAPHAZOLINE] | > 30 | 
27 | c1cc(CN2CCCNCCNCCCNCC2)ccc1CN1CCCNCCNCCCNCC1 [PLERIXAFOR] | > 30 | 
28 | CCCC(=O)O[C@H]1[C@H](C)O[C@@H](O[C@H]2[C@H](N(C)C)[C@@H](O)[C@H](O[C@H]3[C@@H](CC=O)C[C@@H](C)[C@@H](O)/C=C/C=C/C[C@@H](C)OC(=O)C[C@@H](O)[C@@H]3OC)O[C@@H]2C)C[C@@]1(C)OC(=O)CC [ROKITAMYCIN] | > 30 | 
29 | CCCCCCCCCCCCCCCCCC(=O)NCCCC[C@H](NC(=O)CC[C@@H](NC(=O)[C@H](C)NC(=O)[C@@H](C)O[C@H]1[C@H](O)[C@@H](CO)OC(O)[C@@H]1NC(C)=O)C(N)=O)C(=O)O (stereo partly specified) [ROMURTIDE] | 5.69 | 
30 | CCOC(=O)[C@H](CCc1ccccc1)N[C@H]1CS[C@H](c2cccs2)CN(CC(=O)O)C1=O [TEMOCAPRIL] | > 30 | 
31 | c1ccc2[nH]c(-c3cscn3)nc2c1 [THIABENDAZOLE] | > 30 | 
32 | C[C@@H]1C[C@H]2[C@@H]3CCC4=CC(=O)C=C[C@]4(C)C3=CC[C@]2(C)[C@H]1C(=O)CN1CCN(c2cc(N3CCCC3)nc(N3CCCC3)n2)CC1 [TIRILAZAD] | 6.61 | 
